Source: paper PMC8213057, “Targeting ALK2: An Open Science Approach to Developing Therapeutics for the Treatment of Diffuse Intrinsic Pontine Glioma” (Journal of Medicinal Chemistry, 2020)
“And” between values parts separate entries of the source, which are not always exact repeats. Identical values can stand only once.

Tests used:
ACK1 = ACK1 (Homo sapiens, UniProt Q07912); conditions: 1 μM; Run 1, Run 2
AKT2 = AKT2 (Homo sapiens, UniProt P31751); conditions: 1 μM; Run 1, Run 2
CAMK2d = CAMK2d (Homo sapiens, UniProt Q13557); conditions: 1 μM; Run 1, Run 2
Sequence of CAMK2d (Q13557 whole entry): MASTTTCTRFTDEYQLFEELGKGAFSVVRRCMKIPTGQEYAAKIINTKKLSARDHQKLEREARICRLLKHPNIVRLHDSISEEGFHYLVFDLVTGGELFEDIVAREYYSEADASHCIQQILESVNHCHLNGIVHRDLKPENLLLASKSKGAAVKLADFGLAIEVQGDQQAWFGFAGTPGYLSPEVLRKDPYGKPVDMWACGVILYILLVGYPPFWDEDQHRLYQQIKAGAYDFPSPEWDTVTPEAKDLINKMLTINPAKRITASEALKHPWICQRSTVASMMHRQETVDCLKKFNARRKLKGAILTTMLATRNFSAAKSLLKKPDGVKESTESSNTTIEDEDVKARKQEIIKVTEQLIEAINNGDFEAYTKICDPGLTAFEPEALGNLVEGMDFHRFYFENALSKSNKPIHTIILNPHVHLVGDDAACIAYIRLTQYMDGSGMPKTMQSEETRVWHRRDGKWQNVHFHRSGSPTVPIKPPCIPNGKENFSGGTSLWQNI

CDK18/cyclin Y (PCTK3) = CDK18/cyclin Y (PCTK3) (Homo sapiens, UniProt Q07002); conditions: 1 μM; Run 1, Run 2
CDK2/cyclin E = CDK2/cyclin E (Homo sapiens, UniProt P24941); conditions: 1 μM; Run 1, Run 2
CDK6/cyclin D1 = CDK6/cyclin D1 (Homo sapiens, UniProt Q00534); conditions: 1 μM; Run 1, Run 2
Sequence of CDK6/cyclin D1 (Q00534 whole entry): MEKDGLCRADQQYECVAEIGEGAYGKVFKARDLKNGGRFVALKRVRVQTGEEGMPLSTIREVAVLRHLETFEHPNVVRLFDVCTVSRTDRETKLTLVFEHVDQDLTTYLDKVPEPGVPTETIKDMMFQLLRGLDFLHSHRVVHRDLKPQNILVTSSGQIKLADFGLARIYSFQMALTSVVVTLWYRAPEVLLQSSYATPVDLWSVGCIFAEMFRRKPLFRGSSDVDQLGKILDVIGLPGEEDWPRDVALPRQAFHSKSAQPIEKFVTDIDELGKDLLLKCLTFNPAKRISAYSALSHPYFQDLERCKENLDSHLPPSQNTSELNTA
Sequence of CDK6/cyclin D1 (P24385 whole entry partner): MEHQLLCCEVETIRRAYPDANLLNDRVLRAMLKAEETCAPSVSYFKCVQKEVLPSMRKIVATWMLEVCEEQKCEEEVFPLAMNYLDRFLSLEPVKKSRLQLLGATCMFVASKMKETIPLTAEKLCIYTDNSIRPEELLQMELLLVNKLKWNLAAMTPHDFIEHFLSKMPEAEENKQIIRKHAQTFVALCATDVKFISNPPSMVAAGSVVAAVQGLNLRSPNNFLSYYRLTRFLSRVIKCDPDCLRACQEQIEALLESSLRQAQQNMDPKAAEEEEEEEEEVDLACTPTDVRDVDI

EPHA2 = EPHA2 (Homo sapiens, UniProt P29317); conditions: 1 μM; Run 1, Run 2
Sequence of EPHA2 (P29317 24-976): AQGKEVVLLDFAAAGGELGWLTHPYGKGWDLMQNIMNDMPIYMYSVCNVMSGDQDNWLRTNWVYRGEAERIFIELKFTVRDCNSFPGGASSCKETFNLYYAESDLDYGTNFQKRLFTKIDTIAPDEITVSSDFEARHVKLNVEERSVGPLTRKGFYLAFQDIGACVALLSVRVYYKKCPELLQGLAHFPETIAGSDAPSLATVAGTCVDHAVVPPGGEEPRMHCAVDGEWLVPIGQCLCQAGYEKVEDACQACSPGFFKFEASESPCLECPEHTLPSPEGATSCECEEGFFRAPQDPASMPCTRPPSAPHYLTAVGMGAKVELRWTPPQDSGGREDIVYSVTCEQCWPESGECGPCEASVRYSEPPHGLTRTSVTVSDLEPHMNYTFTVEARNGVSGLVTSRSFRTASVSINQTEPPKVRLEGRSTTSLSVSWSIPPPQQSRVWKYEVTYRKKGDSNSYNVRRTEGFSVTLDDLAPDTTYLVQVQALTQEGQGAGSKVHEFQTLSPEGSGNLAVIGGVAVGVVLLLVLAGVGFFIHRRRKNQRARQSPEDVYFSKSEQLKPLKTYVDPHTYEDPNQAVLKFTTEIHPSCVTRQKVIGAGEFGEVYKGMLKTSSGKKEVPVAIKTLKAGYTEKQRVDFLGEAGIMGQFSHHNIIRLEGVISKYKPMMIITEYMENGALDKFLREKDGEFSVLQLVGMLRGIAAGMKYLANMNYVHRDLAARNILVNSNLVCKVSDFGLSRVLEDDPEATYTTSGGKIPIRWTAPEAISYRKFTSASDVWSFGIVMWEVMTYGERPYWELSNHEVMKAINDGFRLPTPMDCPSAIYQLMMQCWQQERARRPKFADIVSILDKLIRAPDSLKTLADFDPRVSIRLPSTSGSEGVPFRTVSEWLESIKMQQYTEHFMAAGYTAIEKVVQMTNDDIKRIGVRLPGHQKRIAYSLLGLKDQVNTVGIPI

FLT1/VEGFR1 = FLT1/VEGFR1 (Homo sapiens, UniProt P17948); conditions: 1 μM; Run 1, Run 2
MEK2 = MEK2 (Homo sapiens, UniProt P36507); conditions: 1 μM; Run 1, Run 2
Sequence of MEK2 (P36507 whole entry): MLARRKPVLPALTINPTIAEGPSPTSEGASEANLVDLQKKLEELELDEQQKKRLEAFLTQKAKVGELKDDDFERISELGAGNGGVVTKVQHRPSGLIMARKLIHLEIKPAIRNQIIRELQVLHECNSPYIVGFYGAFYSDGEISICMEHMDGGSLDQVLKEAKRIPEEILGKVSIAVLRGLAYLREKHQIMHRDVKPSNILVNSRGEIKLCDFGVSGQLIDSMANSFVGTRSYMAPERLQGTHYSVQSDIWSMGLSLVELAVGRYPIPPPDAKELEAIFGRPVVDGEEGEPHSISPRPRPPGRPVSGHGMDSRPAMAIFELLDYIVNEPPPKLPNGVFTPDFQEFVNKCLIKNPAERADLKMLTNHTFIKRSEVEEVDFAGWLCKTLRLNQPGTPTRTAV

PAK4 = PAK4 (Homo sapiens, UniProt O96013); conditions: 1 μM; Run 1, Run 2
PYK2 = PYK2 (Homo sapiens, UniProt Q14289); conditions: 1 μM; Run 1, Run 2
Sequence of PYK2 (Q14289 whole entry): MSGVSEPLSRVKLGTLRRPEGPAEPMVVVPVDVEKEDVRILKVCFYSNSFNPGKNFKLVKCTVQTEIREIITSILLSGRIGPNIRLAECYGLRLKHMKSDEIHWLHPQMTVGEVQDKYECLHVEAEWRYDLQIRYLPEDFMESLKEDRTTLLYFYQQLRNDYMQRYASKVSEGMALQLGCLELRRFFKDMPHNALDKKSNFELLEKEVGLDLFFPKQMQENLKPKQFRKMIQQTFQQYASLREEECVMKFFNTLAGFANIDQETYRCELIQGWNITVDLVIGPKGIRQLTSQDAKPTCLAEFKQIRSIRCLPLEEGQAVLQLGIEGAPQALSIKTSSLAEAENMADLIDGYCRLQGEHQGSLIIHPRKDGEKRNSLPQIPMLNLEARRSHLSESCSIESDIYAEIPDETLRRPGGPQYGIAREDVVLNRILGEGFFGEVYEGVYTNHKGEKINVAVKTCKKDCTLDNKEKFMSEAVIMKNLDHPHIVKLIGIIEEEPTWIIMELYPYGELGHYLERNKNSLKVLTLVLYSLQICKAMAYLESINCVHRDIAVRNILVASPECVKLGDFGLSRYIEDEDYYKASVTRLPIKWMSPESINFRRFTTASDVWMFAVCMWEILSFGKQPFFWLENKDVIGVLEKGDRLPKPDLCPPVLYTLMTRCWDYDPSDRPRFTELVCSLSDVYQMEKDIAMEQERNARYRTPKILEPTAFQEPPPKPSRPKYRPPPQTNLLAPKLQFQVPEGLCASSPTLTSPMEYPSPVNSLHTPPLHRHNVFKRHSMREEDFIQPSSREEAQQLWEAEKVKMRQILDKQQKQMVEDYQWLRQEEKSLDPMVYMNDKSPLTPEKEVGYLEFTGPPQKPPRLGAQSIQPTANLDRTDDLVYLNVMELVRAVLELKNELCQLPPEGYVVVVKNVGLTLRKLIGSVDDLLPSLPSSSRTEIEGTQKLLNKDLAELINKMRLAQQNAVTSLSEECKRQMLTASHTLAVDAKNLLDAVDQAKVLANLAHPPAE

TYK2 = TYK2 (Homo sapiens, UniProt P29597); conditions: 1 μM; Run 1, Run 2
DCAMKL2 = molecular target: T1, DCAMKL2 (Homo sapiens, UniProt Q8N568); test: biochemical; conditions: read-out: % enzyme activity, 1 μM; Run 1, Run 2
T1 sequence (Q8N568 1-766): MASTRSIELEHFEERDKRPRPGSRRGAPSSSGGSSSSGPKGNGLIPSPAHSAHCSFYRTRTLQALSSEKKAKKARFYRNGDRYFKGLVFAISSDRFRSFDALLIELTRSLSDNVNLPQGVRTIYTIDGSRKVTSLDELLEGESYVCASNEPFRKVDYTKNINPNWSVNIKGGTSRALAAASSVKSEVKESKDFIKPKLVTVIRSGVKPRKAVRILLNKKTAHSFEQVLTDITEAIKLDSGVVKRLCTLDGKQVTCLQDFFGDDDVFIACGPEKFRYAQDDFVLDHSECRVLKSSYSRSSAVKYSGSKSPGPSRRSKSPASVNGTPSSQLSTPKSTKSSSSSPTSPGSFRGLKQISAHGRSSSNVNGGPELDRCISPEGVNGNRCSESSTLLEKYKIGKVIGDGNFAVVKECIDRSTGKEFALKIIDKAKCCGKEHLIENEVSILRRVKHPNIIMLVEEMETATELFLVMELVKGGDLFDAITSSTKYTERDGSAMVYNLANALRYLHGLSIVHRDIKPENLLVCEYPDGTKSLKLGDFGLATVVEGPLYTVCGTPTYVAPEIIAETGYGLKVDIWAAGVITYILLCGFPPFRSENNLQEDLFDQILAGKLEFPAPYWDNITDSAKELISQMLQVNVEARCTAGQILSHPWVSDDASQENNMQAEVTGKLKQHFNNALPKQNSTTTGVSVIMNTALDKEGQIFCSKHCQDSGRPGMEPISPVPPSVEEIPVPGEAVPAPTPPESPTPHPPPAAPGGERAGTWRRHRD

DYRK3 = molecular target: T2, DYRK3 (Homo sapiens, UniProt O43781); test: biochemical; conditions: read-out: % enzyme activity, 1 μM; Run 1, Run 2
T2 sequence (O43781 1-588): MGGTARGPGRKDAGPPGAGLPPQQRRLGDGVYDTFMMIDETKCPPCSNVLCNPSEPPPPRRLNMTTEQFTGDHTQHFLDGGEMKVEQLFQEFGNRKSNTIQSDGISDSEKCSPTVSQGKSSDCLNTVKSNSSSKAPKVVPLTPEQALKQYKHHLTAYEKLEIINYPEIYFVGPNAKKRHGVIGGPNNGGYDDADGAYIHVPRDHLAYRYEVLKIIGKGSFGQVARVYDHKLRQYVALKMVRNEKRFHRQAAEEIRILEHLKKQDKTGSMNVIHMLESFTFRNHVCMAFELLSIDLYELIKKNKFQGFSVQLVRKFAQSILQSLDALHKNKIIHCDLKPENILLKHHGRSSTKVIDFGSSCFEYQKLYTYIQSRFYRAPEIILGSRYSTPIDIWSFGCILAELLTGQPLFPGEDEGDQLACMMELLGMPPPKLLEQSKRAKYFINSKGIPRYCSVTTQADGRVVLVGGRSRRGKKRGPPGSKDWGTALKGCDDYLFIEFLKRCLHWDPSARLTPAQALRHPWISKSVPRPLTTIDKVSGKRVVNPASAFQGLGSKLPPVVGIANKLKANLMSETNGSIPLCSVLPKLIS

GRK5 = GRK5 (Homo sapiens, UniProt P34947); test: biochemical; conditions: read-out: % enzyme activity, 1 μM; Run 1, Run 2
RSK1 = RSK1 (Homo sapiens, UniProt Q15418); test: biochemical; conditions: read-out: % enzyme activity, 1 μM; Run 1, Run 2

Sequence of ACK1 (Q07912 whole entry): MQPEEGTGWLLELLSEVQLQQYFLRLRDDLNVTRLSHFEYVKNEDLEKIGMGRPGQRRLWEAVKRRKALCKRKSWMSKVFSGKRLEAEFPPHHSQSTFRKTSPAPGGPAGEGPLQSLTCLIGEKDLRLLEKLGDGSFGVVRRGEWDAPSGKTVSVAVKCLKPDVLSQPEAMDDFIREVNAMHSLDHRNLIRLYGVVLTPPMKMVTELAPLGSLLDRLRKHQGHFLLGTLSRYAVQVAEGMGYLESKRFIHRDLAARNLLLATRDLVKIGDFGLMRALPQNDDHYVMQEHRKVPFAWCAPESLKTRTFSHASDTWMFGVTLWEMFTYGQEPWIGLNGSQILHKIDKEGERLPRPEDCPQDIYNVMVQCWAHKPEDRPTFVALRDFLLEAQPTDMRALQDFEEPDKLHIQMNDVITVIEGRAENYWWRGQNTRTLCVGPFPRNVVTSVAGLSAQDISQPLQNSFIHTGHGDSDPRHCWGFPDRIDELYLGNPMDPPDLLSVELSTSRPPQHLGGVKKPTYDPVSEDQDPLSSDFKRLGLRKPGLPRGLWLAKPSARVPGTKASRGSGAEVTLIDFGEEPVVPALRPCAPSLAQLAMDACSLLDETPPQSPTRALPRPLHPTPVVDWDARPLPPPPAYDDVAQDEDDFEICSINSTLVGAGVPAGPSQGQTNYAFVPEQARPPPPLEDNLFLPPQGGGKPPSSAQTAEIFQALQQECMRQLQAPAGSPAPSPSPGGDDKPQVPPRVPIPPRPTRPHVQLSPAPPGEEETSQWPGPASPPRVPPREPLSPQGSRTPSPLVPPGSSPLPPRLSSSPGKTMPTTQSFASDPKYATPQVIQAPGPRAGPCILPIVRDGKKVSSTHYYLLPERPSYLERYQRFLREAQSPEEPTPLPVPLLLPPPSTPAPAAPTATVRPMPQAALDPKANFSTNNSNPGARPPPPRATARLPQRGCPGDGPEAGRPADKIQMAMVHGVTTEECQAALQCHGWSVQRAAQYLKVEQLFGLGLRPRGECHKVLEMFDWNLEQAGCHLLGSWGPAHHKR
Sequence of AKT2 (P31751 whole entry): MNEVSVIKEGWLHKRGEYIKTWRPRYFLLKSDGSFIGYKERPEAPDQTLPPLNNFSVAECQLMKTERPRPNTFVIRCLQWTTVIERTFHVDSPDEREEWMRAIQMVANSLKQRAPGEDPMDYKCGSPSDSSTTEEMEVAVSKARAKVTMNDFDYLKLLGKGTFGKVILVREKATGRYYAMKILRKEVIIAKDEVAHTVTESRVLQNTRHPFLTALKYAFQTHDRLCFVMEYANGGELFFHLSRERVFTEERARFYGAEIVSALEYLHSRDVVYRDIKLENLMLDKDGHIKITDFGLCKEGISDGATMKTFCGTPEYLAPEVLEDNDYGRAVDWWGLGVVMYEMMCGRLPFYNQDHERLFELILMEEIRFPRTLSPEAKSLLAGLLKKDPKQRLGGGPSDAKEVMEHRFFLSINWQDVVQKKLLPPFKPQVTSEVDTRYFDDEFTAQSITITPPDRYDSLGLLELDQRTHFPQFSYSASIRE

Row | Compound | % enzyme activity at 1 μM (DYRK1B) | % enzyme activity (ACK1) [%] | % enzyme activity (AKT2) [%] | % enzyme activity (CAMK2d) [%] | % enzyme activity (CDK18/cyclin Y (PCTK3)) [%] | % enzyme activity (CDK2/cyclin E) [%] | % enzyme activity (CDK6/cyclin D1) [%] | % enzyme activity (EPHA2) [%] | % enzyme activity (FLT1/VEGFR1) [%] | % enzyme activity (MEK2) [%] | % enzyme activity (PAK4) [%] | % enzyme activity (PYK2) [%] | % enzyme activity (TYK2) [%] | remaining activity at 1 µM (DCAMKL2) [%] | remaining activity at 1 µM (DYRK3) [%] | remaining activity at 1 µM (GRK5) [%] | remaining activity at 1 µM (RSK1) [%]
1 | COc1cc(-c2cncc(-c3ccc(N4CCN(C)CC4)cc3)c2C)cc(F)c1C(N)=O [Compound 26a, 2-Fluoro-6-methoxy-4-(4-methyl-5-(4-(4-methylpiperazin-1-yl)phenyl)pyridin-3-yl)benzamide] | 40.6% and 39.8% | 65.46 | 91.70 | 94.73 | 100.43 | 104.52 | 97.80 | 97.38 | 105.29 | 85.87 | 98.21 | 85.65 | 91.37 | 64.4 | 90.4 | 104 | 98.9
2 | COc1cc(-c2cncc(-c3ccc(N4C[C@@H](C)N(C)[C@@H](C)C4)cc3)c2C)cc(F)c1C(N)=O [Compound 26c, 2-Fluoro-6-methoxy-4-(4-methyl-5-(4-((3R,5S)-3,4,5-trimethylpiperazin-1-yl)phenyl)pyridin-3-yl)benzamide] | 59.2% and 58.5% | 76.07 | 92.08 | 95.15 | 97.60 | 102.10 | 92.80 | 104.56 | 104.04 | 91.58 | 98.82 | 85.73 | 99.47 | 84.5 | 96 | 93.1 | 102
